Experimental findings from patent US20180263943A1, “COMPOUND FOR TREATMENT OF MYOTONIC DYSTROPHY TYPE 1” (UNIVERSITAT DE VALÈNCIA, ESTUDI GENERAL, priority 2014, published 2018) are described below.

Assay [1] relates to DM1 model flies (Mhc-Gal4 UASi(CTG)480>yw). Put plainly: Drosophila lifespan analyses with oral drug administration. The class given is in vivo. Conditions: for increase in mean life compared to that for untreated flies: oral, 29° C.; for median survival compared to untreated flies / survival / mean life expectancy of myotonic dystrophy type 1 model flies (summary): oral administration; for survival / mean life expectancy of myotonic dystrophy type 1 model flies (summary): tested at 10 and 100 μM. As for the experimental part:
Between 50-80 newly emerged flies were collected in freshly prepared tubes containing standard nutritive medium containing apoptosis or autophagic inhibitor drugs or solvent only (water or DMSO). Males and females were kept in different tubes at 29° C. Every day, the number of dead flies was scored. Flies were transferred to new tubes twice a week. NAC, chloroquine and NSCl (Sigma-Aldrich) were tested at 10 and 100 μM and dissolved in water or DMSO following the manufacturer's indications. Survival curves were obtained using the Kaplan-Meier method. Statistical curve comparisons were carried out according to the Gehan-Breslow-Wilcoxon test (α=0.05).
The effect of a chemical inhibition of apoptosis or autophagy in model flies (Mhc-Gal4 UASi(CTG)480>yw) was studied. Consequently, two different drugs previously described as autophagic inhibitors were tested. N-acetyl cysteine (NAC) blocks reactive oxygen species (ROS) and protects cells by inhibiting autophagy through activation of the PI3K/Akt/mTOR pathway (20), and chloroquine triggers autophagy inhibition raising lysosomal pH and, consequently, the fusion of autophagosome with lysosome, thus preventing lysosomal protein degradation [reviewed in (21)]. Both drugs were assayed at two different concentrations, 10 and 100 μM (FIGS. 5 A, B).
Additionally, the effects of apoptosis inhibition were assayed. NSCl, a caspase 3 inhibitor, was orally administered.

The test system of assay [2] is DM1 model flies [Mhc-Gal4 UAS-i(CTG)480>yw]. In words: Histological analysis of indirect flight muscle area in DM1 model flies. Conditions: oral administration. In kind it is in vivo, Drosophila. As for the experimental part:
Analysis of the indirect flight muscle area in Drosophila thoraces was performed as previously described (13). Briefly, six Drosophila thoraces of three-day-old females were embedded in Epon following standard procedures. After the drying of the resin, semi-thin sections of 1.5 μm were obtained using Ultracut E ultramicrotome system (Reichert & Jung and Leica). Images were taken at 100× magnification with a Leica DM2500 microscope. To quantify muscle area, five images per fly containing IFMs (indirect flight muscles) were converted into binary images. Considering the complete image as 100% of the area, the percentage occupied by pixels corresponding to IFMs was calculated using NIH ImageJ software. P-values were obtained using a two-tailed, non-paired t-test (α=0.05), applying Welch's correction when necessary.
For that purpose, DM1 model flies were fed with food containing 10 and 100 μM NAC for 7 days.
Histological analysis of muscles was performed in adult model flies [Mhc-Gal4 UAS-i(CTG)480>yw] and control flies (Mhc-Gal4>yw) which were fed for 7 days at 25° C. with standard media containing 10 and 100 μM NAC. After that period, six female thoraces were subjected to non-fluorescent histological analysis, as described above (FIG. 7).

Another assay concerns MBNL1. In words: MBNL1 nuclear protein levels in DM1 myoblasts (immunofluorescence). In kind it is cell-based, human. Conditions: 0.1, 1, 10 and 100 μM, 24 h. How it is done: In order to determine whether NAC modifies MBNL1 protein levels and/or the number of ribonuclear foci, DM1 fibroblasts were transdifferentiated to myoblasts by induction of MyoD expression for 24 h. To this end, fibroblasts were aliquoted in 96-well plate (8×10^3 cells per well) and transdifferentiated to myoblast in DMD media over 24 hours before the addition of NAC was added at concentrations of 0.1, 1, 10 and 100 μM using DMSO and water as vehicle and remained in the media with the compound another 24 hours. Subsequently cells were fixed in 4% paraformaldehyde (PFA) for 10 min at room temperature followed by several washes in PBS 1×. Cells were then permeabilized with 0.3% Triton in PBS (PBT), blocked (PBT 1% donkey serum and 0.5% BSA) for 30 min at room temperature, and incubated with primary antibody (mouse anti-MBNL1 1:200; Sigma) at 4° C. overnight in order to detect MBNL1 with a monoclonal antibody. After several washes with PBT, cells were incubated for 45 min with biotin-conjugated secondary antibody (Sigma) at a 1:200 dilution. Cells were then incubated with ABC solution (ABC kit, VECTASTAIN) for 30 min at room temperature, followed by PBT washes and incubation with streptavidin-FITC (1:200) for 45 min. […] Images were taken using IN Cell Analyzer 2200 Imaging System and MBNL intensity in nuclei was counted using software designed for this system.

Another assay has as its system DM1 fibroblasts. In words: LysoTracker staining of autolysosomes in DM1 fibroblasts. In kind it is cell-based, human. The settings on record: 0.01, 1, 10 and 100 μM, 48 h. How it is done:
A cell model of DM1 (provided by D. Furling's laboratory, Institute of Myologie, Paris) consisted of normal and DM1 (1300 CTG repeats) immortalized (hTERT) skin fibroblasts expressing conditional MyoD. Fibroblast cells were grown in Dulbecco's Modified Eagle Medium (DMEM) with 4.5 g/L of glucose, 1% of penicillin and streptomycin (P/S) and 10% foetal bovine serum (FBS) (Sigma). For compound testing, fibroblasts were aliquoted in 24-well plate at 3.5×10^4 cells per well. Each well contained a cover slip.
To this end, a cell model of DM1 was cultured as described above and NAC (Sigma-Aldrich) was added to afford final concentrations of 0.01, 1, 10 and 100 μM before incubating the cultures for 48 hours. To transdifferentiate fibroblasts into myoblasts by inducing expression of MyoD, cells were plated in muscle differentiation medium (MDM) containing DMEM 4.5 g/L glucose with 1% P/S, 2% horse serum, 1% apo-transferrin (10 mg/mL), 0.1% insulin (10 mg/mL) and 0.02% doxycyclin (10 mg/mL). After treatment with NAC, each well was washed twice with PBS and incubated with 100 nM LysoTracker RED-DND99 and 5 μg/mL Hoechst 33258 (Invitrogen and Sigma-Aldrich, respectively) at 37° C. for 30 min and mounted using fluorescence mounting medium (Dako, Glostrup, Denmark). Images from cell culture were obtained using a fluorescence microscope Leica DM4000 B LED at 400× magnification (FIG. 6).

Another assay relates to ribonuclear foci. Put plainly: Ribonuclear foci detection in DM1 cells (in situ hybridization). The class given is cell-based, human. The settings on record: 0.1, 1, 10 and 100 μM, 24 h. How it is done:
In addition, for ribonuclear foci detection, fibroblasts were aliquoted in 96-well plate (1.0×10^4 cells per well). Compound was added 24 hours after plating the cells. After 24 hours incubation with NAC at concentrations of 0.1, 1, 10 and 100 μM using DMSO and water as vehicle, cells were fixed in 4% paraformaldehyde (PFA) for 10 min at room temperature followed by several washes in PBS 1×. Fixed cells were incubated in pre-hybridization buffer (SSC 2×, 30% deionized formamide) for 30 min at room temperature, hybridized with Cy3-(CAG)7-Cy3 labelled probe diluted 1:500 in hybridization buffer (40% formamide, 2×SSC, 0.2% BSA, 10% dextran sulfate, 2 mM vanadyl complex, 10% tRNA (10 mg/mL), 10% herring sperm) for 2 hours at 37° C., washed twice in SSC2× buffer for 15 min at 45° C., washed in PBS 1× for 15 min at room temperature, incubated with Hoechst 33342 (5 mg/mL) diluted 1:2000 in PBS 1× for 20 min at room temperature and mounted with 20% MOWIOL. Images were taken using IN Cell Analyzer 2200 Imaging System and foci number was counted using software designed for this system.

The subject of assay [3] is Myosin heavy chain (Mhc)-Gal4 UAS-i(CTG)480 flies. Put plainly: Flight assay (landing height). The settings on record: five days. In kind it is in vivo, Drosophila. As for the experimental part:
Flight assays were performed five days after according to (Babcock et al. 2014 PMID: 24561810) using 100 male flies per group. Landing distance was compared between groups taking the compound and controls using t-student test (FIG. 8). The significance threshold was set to p<0.05.

Molecules are shown by their SMILES. “Also recorded” adds a separate entry of the source.

As to `CCN(CC)CCCC(C)Nc1ccnc2cc(Cl)ccc12` (stereo not shown) [chloroquine], the “increase in mean life compared to that for untreated flies” value in assay [1] (10 μM in food) and in assay [1] (100 μM in food) was “at least twice” each time. For the same molecule, the “median survival compared to untreated flies” value in assay [1] (10 μM) and in assay [1] (100 μM) was “increased median survival” each time. The “survival / mean life expectancy of myotonic dystrophy type 1 model flies (summary)” value (shortened to “survival / mean life expectancy”) in assay [1] is given as “more than doubled”. The “muscle area of IFM versus water control” value in assay [2] (10 μM) is listed as “increase in muscle area”.
Turning to `CC(=O)N[C@@H](CS)C(=O)O` [NAC, N-acetyl cysteine], the “MBNL1 intensity in the nucleus / MBNL1 protein levels” value in the assay with MBNL1 was “remains unchanged”. Also, the “autolysosomes (LysoTracker staining) compared to untreated DM1 fibroblasts” value in the assay on DM1 fibroblasts is on record as “dramatic decrease of autolysosomes; also recorded: dramatically reduce autolysosomes”. In the assay with ribonuclear foci, the “number of ribonuclear foci” value is given as “does not modify; also recorded: neither modifies”. Besides, the “increase in mean life compared to that for untreated flies” value in assay [1] (10 μM in food) and in assay [1] (100 μM in food) was “at least twice” each time. Further, the “median survival compared to untreated flies” value in assay [1] (10 μM) and in assay [1] (100 μM) was “increased median survival” in each case. For the same molecule, in assay [1], the “survival / mean life expectancy” value is listed as “more than doubled”. The landing height entry in assay [3] (10 μM in food) and in assay [3] (100 μM in food) was “significantly higher landing height” in each case. Further, the “muscle area of IFM versus water control” value in assay [2] (10 μM) and in assay [2] (100 μM) was “increase in muscle area” in each case.
As to `COc1ccc(CN2C(=O)C(=O)c3cc(S(=O)(=O)N4CCC[C@H]4COc4cccnc4)ccc32)cc1` [NSCl, 1-(4-methoxybenzyl)-5-({(2S)-2-[(3-pyridinyloxy)methyl]-1-pyrrolidinyl}sulfonyl)-1H-indole-2,3-dione], the “improvement of mean life” value in assay [1] (10 μM (lower concentration), orally administered) is on record as 4 days. The “median survival compared to untreated flies” value in assay [1] (10 μM) is “improvement in median survival”; in assay [1] (100 μM), “No effect”. Besides, the “survival / mean life expectancy” value in assay [1] is “improved”.
